In brackets after ≈: the same amount, converted by molar mass.
What was measured:
[1] = Thermodynamic equilibrium solubility in stimulated gastric fluid at 120 ug/ml at pH 1.2 by HPLC analysis; format: ADME; details: simulated gastric fluid, read-out: Therm_solubility
[2] = Cytotoxicity against HEK293 cells assessed as cell growth inhibition after 48 hrs by MTT assay; format: cell-based; details: human
[3] = target: Ephrin type-A receptor 2 (Homo sapiens) (UniProt P29317); assay: Inhibition of human EPHA2 (591 to 976 residues) assessed as remaining enzyme activity at 50 uM after 30 mins by 33P-ATP filter-binding assay
[4] = target: Angiopoietin-1 receptor (Homo sapiens) (UniProt Q02763); assay: Inhibition of human TIE2 (771 to 1124 residues) assessed as remaining enzyme activity at 50 uM after 30 mins by 33P-ATP filter-binding assay
[5] = Partition coefficient, logP of the compound in water/PBS buffer at 25 degC by retention time method; format: physicochemical
[6] = target: Mitogen-activated protein kinase 12 (Homo sapiens) (UniProt P53778); assay: Inhibition of human p38gamma MAPK (1 to 367 residues) assessed as remaining enzyme activity at 50 uM after 30 mins by 33P-ATP filter-binding assay
[7] = target: RAC-beta serine/threonine-protein kinase (Homo sapiens) (UniProt P31751); assay: Inhibition of human PKBbeta assessed as remaining enzyme activity at 50 uM after 30 mins by 33P-ATP filter-binding assay
Chain of RAC-beta serine/threonine-protein kinase (Homo sapiens) (P31751 whole entry, the tested form may be a part): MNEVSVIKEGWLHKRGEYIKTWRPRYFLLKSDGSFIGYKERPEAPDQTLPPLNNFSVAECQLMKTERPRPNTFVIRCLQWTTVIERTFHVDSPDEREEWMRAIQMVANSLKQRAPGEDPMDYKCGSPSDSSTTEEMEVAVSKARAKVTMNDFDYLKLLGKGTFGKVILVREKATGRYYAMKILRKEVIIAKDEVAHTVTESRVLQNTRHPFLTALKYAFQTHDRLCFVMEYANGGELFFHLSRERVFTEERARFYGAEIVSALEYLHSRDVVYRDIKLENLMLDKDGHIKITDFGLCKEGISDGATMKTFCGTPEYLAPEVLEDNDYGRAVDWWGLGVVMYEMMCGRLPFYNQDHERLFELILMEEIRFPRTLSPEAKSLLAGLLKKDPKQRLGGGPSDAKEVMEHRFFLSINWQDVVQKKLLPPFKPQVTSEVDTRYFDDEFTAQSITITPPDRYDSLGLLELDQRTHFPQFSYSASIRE

[8] = target: Serine/threonine-protein kinase PLK1 (Homo sapiens) (UniProt P53350); assay: Inhibition of human PLK1 (1 to 603 residues) assessed as remaining enzyme activity at 50 uM after 30 mins by 33P-ATP filter-binding assay
[9] = target: Serine/threonine-protein kinase WNK1 (Homo sapiens) (UniProt Q9H4A3); assay: Inhibition of human WNK1 (1 to 661 residues) assessed as remaining enzyme activity at 50 uM after 30 mins by 33P-ATP filter-binding assay
[10] = target: Serine/threonine-protein kinase PAK 4 (Homo sapiens) (UniProt O96013); assay: Inhibition of human PAK4 (2 to 591 residues) assessed as remaining enzyme activity at 50 uM after 30 mins by 33P-ATP filter-binding assay
Chain of Serine/threonine-protein kinase PAK 4 (Homo sapiens) (O96013 whole entry, looked up, the tested form may be a part): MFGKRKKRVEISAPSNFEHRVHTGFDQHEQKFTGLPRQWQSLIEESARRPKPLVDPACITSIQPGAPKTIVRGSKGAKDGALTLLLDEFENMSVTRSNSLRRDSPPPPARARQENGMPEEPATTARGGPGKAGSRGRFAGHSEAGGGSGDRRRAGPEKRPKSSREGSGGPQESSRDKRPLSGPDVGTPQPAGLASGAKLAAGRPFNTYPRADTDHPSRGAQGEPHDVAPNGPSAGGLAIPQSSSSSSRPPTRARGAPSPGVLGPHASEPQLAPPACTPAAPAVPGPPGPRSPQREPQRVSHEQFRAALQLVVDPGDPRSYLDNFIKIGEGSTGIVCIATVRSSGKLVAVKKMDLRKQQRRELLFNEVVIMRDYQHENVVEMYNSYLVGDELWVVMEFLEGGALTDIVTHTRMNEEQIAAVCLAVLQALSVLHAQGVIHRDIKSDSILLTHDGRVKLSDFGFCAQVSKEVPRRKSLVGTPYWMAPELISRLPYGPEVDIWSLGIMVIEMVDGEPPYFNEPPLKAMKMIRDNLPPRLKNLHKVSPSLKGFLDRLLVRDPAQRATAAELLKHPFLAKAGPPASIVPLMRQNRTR

[11] = target: Mitogen-activated protein kinase 11 (Homo sapiens) (UniProt Q15759); assay: Inhibition of human p38beta MAPK (1 to 364 residues) assessed as remaining enzyme activity at 50 uM after 30 mins by 33P-ATP filter-binding assay
Chain of Mitogen-activated protein kinase 11 (Homo sapiens) (Q15759 whole entry, the tested form may be a part): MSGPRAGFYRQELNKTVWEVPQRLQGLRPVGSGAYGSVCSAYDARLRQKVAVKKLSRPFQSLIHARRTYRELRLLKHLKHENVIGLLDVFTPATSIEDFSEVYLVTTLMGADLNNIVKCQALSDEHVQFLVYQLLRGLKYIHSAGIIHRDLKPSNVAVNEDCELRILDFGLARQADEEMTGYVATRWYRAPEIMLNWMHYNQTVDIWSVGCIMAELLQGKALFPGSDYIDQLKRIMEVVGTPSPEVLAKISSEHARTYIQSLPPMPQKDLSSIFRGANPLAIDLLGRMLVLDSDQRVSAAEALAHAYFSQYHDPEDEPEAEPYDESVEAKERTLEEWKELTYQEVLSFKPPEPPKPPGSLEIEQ

[12] = target: Mitogen-activated protein kinase 3 (Homo sapiens) (UniProt P27361); assay: Inhibition of human ERK1 (1 to 379) assessed as remaining enzyme activity at 50 uM after 30 mins by 33P-ATP filter-binding assay
[13] = target: Phosphorylase kinase (Homo sapiens) (UniProt P15735+P46020+P46019+Q93100+Q16816); assay: Inhibition of human PHK assessed as remaining enzyme activity at 50 uM after 30 mins by 33P-ATP filter-binding assay; format: protein-complex assay
[14] = target: Dual specificity protein kinase TTK (Homo sapiens) (UniProt P33981); assay: Inhibition of human TTK (1 to 857 residues) assessed as remaining enzyme activity at 50 uM after 30 mins by 33P-ATP filter-binding assay
Chain of Dual specificity protein kinase TTK (Homo sapiens) (P33981 whole entry, the tested form may be a part): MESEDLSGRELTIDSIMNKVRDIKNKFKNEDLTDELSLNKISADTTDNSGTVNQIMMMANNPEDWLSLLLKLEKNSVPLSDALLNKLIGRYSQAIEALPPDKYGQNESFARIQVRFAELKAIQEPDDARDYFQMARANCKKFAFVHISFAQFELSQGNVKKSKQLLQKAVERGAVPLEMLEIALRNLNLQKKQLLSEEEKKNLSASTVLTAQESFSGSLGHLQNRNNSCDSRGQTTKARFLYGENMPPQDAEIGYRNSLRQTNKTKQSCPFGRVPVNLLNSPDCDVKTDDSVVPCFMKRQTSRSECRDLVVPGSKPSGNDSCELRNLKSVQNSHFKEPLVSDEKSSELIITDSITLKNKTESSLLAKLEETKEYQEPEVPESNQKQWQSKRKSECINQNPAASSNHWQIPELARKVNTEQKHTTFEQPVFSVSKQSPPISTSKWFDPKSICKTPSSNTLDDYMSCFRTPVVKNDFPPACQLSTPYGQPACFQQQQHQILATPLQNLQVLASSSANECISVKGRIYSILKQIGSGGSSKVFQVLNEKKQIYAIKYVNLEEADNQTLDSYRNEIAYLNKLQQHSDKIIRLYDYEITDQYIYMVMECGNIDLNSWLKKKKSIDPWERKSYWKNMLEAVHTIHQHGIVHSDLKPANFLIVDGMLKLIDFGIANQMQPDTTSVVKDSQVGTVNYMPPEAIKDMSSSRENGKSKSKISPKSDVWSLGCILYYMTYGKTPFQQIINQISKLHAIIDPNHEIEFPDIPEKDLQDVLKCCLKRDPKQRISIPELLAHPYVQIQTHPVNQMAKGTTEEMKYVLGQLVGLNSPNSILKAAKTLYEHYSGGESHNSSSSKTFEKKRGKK

[15] = target: Serine/threonine-protein kinase 24 (Homo sapiens) (UniProt Q9Y6E0); assay: Inhibition of human MST3 (2 to 431 residues) assessed as remaining enzyme activity at 50 uM after 30 mins by 33P-ATP filter-binding assay
Chain of Serine/threonine-protein kinase 24 (Homo sapiens) (Q9Y6E0 whole entry, looked up, the tested form may be a part): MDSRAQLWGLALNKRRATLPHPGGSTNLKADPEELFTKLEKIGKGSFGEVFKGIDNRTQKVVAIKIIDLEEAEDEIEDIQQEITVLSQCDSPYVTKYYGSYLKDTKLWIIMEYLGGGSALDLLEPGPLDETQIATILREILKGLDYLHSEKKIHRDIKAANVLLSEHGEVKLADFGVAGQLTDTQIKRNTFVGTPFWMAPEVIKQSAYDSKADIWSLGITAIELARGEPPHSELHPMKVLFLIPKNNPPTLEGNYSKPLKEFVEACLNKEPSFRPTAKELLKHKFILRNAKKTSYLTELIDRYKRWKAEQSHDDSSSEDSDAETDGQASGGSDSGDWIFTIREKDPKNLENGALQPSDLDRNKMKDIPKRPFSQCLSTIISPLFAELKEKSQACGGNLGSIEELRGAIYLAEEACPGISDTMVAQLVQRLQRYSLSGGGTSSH

[16] = Cell cycle arrest in human HL60 cells assessed as accumulation at G1 phase at 10 uM (reference value: 59 %); format: functional, cell-based; details: HL-60
[17] = target: CDK9/cyclin T1 (Homo sapiens) (UniProt O60563+P50750); assay: Inhibition of human Cdk9/T1 using YSPTSPSYSPTSPSYSPTSPKKK peptide as substrate assessed as remaining enzyme activity at 50 uM after 30 mins by 33P-ATP filter-binding assay; format: protein-complex assay
[18] = target: Serine/threonine-protein kinase MARK1 (Homo sapiens) (UniProt Q9P0L2); assay: Inhibition of human MARK1 (2 to 795 residues) assessed as remaining enzyme activity at 50 uM after 30 mins by 33P-ATP filter-binding assay
[19] = target: Dual specificity mitogen-activated protein kinase kinase 2 (Homo sapiens) (UniProt P36507); assay: Inhibition of human MKK2 (2 to 400 residues) assessed as remaining enzyme activity at 50 uM after 30 mins by 33P-ATP filter-binding assay
[20] = target: Serine/threonine-protein kinase STK11 (Homo sapiens) (UniProt Q15831); assay: Inhibition of human LKB1 (1 to 433 residues) assessed as remaining enzyme activity at 50 uM after 30 mins by 33P-ATP filter-binding assay
[21] = target: Serine/threonine-protein kinase PAK 2 (Homo sapiens) (UniProt Q13177); assay: Inhibition of human PAK2 assessed as remaining enzyme activity at 50 uM after 30 mins by 33P-ATP filter-binding assay
Chain of Serine/threonine-protein kinase PAK 2 (Homo sapiens) (Q13177 whole entry): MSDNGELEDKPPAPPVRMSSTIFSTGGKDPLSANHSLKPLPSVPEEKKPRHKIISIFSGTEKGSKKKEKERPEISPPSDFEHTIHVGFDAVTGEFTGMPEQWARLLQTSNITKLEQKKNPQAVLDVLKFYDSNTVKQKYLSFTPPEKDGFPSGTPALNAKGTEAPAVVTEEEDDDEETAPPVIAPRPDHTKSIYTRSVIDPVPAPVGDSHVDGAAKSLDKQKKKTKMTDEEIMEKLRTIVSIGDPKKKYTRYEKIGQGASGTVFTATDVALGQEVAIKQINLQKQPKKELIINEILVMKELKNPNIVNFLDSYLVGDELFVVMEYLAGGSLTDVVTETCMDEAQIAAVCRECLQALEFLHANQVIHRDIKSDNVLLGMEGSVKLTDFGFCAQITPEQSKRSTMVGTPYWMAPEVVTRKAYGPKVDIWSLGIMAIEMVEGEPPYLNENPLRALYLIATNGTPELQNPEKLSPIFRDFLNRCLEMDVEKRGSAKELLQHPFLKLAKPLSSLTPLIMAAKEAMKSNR

[22] = Cell cycle arrest in human HL60 cells assessed as accumulation at S phase at 5 uM (reference value: 36 %); format: functional, cell-based; details: HL-60
[23] = target: Mitogen-activated protein kinase 13 (Homo sapiens) (UniProt O15264); assay: Inhibition of human p38delta MAPK (1 to 365 residues) assessed as remaining enzyme activity at 50 uM after 30 mins by 33P-ATP filter-binding assay
[24] = Stability in SIF solution assessed as reduction in compound AUC at 120 ug/ml after 8 hrs by RP-HPLC analysis; format: physicochemical; details: read-out: Drug degradation
[25] = Distribution coefficient, logD of the compound in water/PBS buffer at pH 7.4 at 25 degC after 20 mins by shake flask method; format: physicochemical
[26] = target: Casein kinase I isoform delta (Homo sapiens) (UniProt P48730); assay: Inhibition of human CK1delta (1 to 415 residues) assessed as remaining enzyme activity at 50 uM after 30 mins by 33P-ATP filter-binding assay
[27] = target: Casein kinase I isoform gamma-2 (Homo sapiens) (UniProt P78368); assay: Inhibition of human CK1gamma2 (1 to 415 residues) assessed as remaining enzyme activity at 50 uM after 30 mins by 33P-ATP filter-binding assay
Chain of Casein kinase I isoform gamma-2 (Homo sapiens) (P78368 whole entry, looked up, the tested form may be a part, canonical isoform): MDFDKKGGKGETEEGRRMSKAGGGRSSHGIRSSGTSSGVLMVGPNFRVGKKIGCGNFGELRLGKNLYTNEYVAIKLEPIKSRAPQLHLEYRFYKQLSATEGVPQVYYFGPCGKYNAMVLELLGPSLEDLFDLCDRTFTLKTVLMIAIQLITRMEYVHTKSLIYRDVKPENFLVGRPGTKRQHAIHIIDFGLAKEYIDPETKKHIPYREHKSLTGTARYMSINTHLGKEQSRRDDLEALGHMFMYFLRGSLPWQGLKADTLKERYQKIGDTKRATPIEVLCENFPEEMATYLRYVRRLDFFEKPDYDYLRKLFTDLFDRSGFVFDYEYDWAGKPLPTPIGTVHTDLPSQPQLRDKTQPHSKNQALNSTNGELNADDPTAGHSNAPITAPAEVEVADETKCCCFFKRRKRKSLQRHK

[28] = target: Ribosomal protein S6 kinase alpha-1 (Homo sapiens) (UniProt Q15418); assay: Inhibition of human RSK1 (1 to 735 residues) assessed as remaining enzyme activity at 50 uM after 30 mins by 33P-ATP filter-binding assay
[29] = target: Eukaryotic translation initiation factor 2-alpha kinase 3 (Homo sapiens) (UniProt Q9NZJ5); assay: Inhibition of human EIF2AK3 (536 to 1116 residues) assessed as remaining enzyme activity at 50 uM after 30 mins by 33P-ATP filter-binding assay
Chain of Eukaryotic translation initiation factor 2-alpha kinase 3 (Homo sapiens) (Q9NZJ5 whole entry, the tested form may be a part): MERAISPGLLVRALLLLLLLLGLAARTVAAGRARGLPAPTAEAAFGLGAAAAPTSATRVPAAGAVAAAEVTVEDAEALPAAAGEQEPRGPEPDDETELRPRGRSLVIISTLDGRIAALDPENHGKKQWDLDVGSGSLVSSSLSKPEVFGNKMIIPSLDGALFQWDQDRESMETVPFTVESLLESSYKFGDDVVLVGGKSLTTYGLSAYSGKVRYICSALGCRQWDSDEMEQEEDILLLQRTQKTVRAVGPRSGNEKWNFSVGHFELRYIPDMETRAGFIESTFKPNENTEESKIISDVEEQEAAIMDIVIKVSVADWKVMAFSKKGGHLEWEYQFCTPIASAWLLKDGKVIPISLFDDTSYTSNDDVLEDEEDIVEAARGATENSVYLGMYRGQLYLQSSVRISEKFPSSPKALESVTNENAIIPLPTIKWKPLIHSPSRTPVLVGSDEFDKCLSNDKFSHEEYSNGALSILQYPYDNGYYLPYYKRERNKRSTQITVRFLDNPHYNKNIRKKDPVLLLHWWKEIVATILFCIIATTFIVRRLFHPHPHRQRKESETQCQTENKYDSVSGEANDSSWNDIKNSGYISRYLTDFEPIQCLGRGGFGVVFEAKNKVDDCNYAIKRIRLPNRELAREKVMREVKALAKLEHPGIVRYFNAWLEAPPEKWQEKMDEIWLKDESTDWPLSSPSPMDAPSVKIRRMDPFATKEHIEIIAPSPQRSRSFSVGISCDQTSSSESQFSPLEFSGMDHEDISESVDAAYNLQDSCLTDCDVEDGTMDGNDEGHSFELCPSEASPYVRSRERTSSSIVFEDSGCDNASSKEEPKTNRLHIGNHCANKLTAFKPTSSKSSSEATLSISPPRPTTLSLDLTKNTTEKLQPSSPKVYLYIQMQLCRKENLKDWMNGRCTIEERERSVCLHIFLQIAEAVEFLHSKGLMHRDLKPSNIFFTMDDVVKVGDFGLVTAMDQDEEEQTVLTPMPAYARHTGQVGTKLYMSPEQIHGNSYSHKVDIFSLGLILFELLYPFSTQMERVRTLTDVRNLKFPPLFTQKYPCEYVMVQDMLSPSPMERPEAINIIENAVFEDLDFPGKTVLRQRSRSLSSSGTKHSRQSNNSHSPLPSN

K562 = assay: Cytotoxicity against human K562 cells assessed as cell growth inhibition after 48 hrs by MTT assay; format: functional; details: K562, 48 h
[30] = target: Serine/threonine-protein kinase PAK 6 (Homo sapiens) (UniProt Q9NQU5); assay: Inhibition of human PAK6 (2 to 681 residues) assessed as remaining enzyme activity at 50 uM after 30 mins by 33P-ATP filter-binding assay

solubility thermodynamic [1]: 33.4 mg/mL (≈ 109 mM)
Activity [3]: 38%
Activity [4]: 80%
logP [5]: 1.01
Activity [6]: 27%
Activity [7]: 80%
Activity [8]: 96%
Activity [9]: 100%
Activity [10]: 83%
Activity [11]: 76%
Activity [12]: 86%
Activity [13]: 23%
Activity [14]: 56%
Activity [15]: 85%
Activity [17]: 7%
Activity [18]: 67%
Activity [19]: 44%
Activity [20]: 59%
Activity [21]: 88%
Activity [23]: 16%
degraded at 8 h, 120 ug/ml [24]: 2.42%
logD at 20 min [25]: -0.55
Activity [26]: 78%
Activity [27]: 92%
Activity [28]: 31%
Activity [29]: 82%
Activity [30]: 79%
SMILES: Cc1cc(=O)c2c(O)cc(O)c([C@H]3CCN(C)C[C@H]3O)c2o1 [ROHITUKINE]
GI50 at 48 h [2]: > 50 µM
Activity [16]: 48%
Activity [22]: 43%
GI50 (K562): 24 µM
